ChEMBL document CHEMBL5143732 (J Med Chem, 2022)
Converted amounts (≈) assume the structure as drawn. The source made the active and inactive calls. No cut-off for these calls is given here.

Assays:
[1] = Elimination half life in ICR (CD-1) mouse at 1 mg/kg, iv measured upto 24 hrs; assay type: ADME, organism-based; conditions: in vivo, read-out: beta t1/2 (converted)
Candida albicans [2] = test: Antifungal activity against Candida albicans ATTCC 14053 infected in SPF Kunming mouse assessed as increase in mouse survival pre-infected for 1 hr followed by compound addition and measured after 7 to 14 days; assay type: functional; conditions: time 7-14 day
[3] = Observed clearance in ICR (CD-1) mouse at 1 mg/kg, iv measured upto 24 hrs; assay type: ADME, organism-based; parameters: dose 1 mg/kg, time < 24 hrs, route iv; conditions: in vivo
[4] = AUClast in ICR (CD-1) mouse at 1 mg/kg, iv measured upto 24 hrs; assay type: ADME, organism-based; parameters: dose 1 mg/kg, time < 24 hrs, route iv; conditions: in vivo; for AUC(0-t) at 24 h: ICR (CD-1)
[5] = Acute toxicity in iv dosed SPF ICR mouse assessed as maximum tolerated measured for 14 days; assay type: organism-based; conditions: in vivo, dose 30 mg/kg, time 14 day
[6] = Therapeutic index ratio of MTD for acute toxicity in iv dosed SPF ICR mouse to ED50 for antifungal activity against Candida albicans ATTCC 14053 infected in SPF kunming mouse; assay type: organism-based; conditions: in vivo, read-out: TI
[7] = Observed MRT infinity in ICR (CD-1) mouse at 1 mg/kg, iv measured upto 24 hrs; assay type: ADME, organism-based; conditions: in vivo
[8] = Observed volume of distribution at steady state in ICR (CD-1) mouse at 1 mg/kg, iv measured upto 24 hrs; assay type: ADME, organism-based; conditions: in vivo, read-out: Vdss
[9] = Observed AUC infinity in ICR (CD-1) mouse at 1 mg/kg, iv measured upto 24 hrs; assay type: ADME, organism-based; parameters: dose 1 mg/kg, time < 24 hrs, route iv; conditions: in vivo; for AUC(0-inf): ICR (CD-1)
Lipid bilayer [10] = test: Induction of membrane disruption in inner membrane mimic POPC/ergosterol (10:1) large unilamellar vesicles assessed as change in liposomal integrity by transmission electron microscopic analysis; assay type: cell membranes
Lipid bilayer [11] = test: Induction of membrane disruption in inner membrane mimic POPC/ergosterol (10:1) large unilamellar vesicles assessed as change in morphology by transmission electron microscopic analysis; assay type: cell membranes
[12] = Aqueous solubility of compound at pH 6.8; assay type: physicochemical; conditions: buffer
Cytochrome P450 2C19 = Cytochrome P450 2C19 (Homo sapiens, UniProt P33261); test: Inhibition of CYP2C19 in human liver microsome using mephenytoin as substrate preincubated for 10 mins followed by NADPH addition and measured after 15 mins by LC-MS/MS analysis; assay type: ADME, microsomes
[13] = Aggregation property of the compound in PBS at 7.4 pH assessed as dimerization at 5.4 uM by UV/vis double-beam spectrometer analysis; assay type: physicochemical; conditions: buffer, pH 7.4, 5.4 µM
Cytochrome P450 1A2 = target: T1, Cytochrome P450 1A2 (Homo sapiens, UniProt P05177); test: Inhibition of CYP1A2 in human liver microsome using Phenacetin as substrate preincubated for 10 mins followed by NADPH addition and measured after 15 mins by LC-MS/MS analysis; assay type: ADME, microsomes
T1 sequence (P05177 whole entry): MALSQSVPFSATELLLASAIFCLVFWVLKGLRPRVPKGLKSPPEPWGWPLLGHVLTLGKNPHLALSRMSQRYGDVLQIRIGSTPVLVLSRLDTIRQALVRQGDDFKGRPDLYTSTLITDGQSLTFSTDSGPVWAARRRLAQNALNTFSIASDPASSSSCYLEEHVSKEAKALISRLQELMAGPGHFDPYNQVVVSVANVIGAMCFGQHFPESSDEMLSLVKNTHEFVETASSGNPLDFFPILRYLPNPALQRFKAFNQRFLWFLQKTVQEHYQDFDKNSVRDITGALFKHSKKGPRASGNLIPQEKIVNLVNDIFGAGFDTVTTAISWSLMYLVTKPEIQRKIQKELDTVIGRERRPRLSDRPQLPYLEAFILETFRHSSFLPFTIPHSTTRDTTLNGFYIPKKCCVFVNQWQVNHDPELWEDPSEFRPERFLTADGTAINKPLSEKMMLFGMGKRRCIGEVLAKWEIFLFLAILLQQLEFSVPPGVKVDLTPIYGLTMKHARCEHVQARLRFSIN

Cytochrome P450 2C9 = Cytochrome P450 2C9 (Homo sapiens, UniProt P11712); test: Inhibition of CYP2C9 in human liver microsome using tolbutamide as substrate preincubated for 10 mins followed by NADPH addition and measured after 15 mins by LC-MS/MS analysis; assay type: ADME, microsomes
[14] = target: Voltage-gated inwardly rectifying potassium channel KCNH2 (Homo sapiens, UniProt Q12809); test: Inhibition of hERG expressed in CHO cells at -80 mV holding potential by automated patch clamp method; assay type: toxicity, cell-based
Cytochrome P450 3A4 = Cytochrome P450 3A4 (Homo sapiens, UniProt P08684); test: Inhibition of CYP3A4 in human liver microsome using midazolam and testostrone as substrate preincubated for 10 mins followed by NADPH addition and measured after 15 mins by LC-MS/MS analysis; assay type: ADME, microsomes
Cytochrome P450 2D6 = Cytochrome P450 2D6 (Homo sapiens, UniProt P10635); test: Inhibition of CYP2D6 in human liver microsome using dextromethorphan as substrate preincubated for 10 mins followed by NADPH addition and measured after 15 mins by LC-MS/MS analysis; assay type: ADME, microsomes
Nakaseomyces glabratus = test: Potency index, ratio of AMD MIC to test compound MIC for antifungal activity against Candida glabrata; assay type: functional
Candida tropicalis [15] = test: Antifungal activity against Candida tropicalis assessed as inhibition of fungal growth measured after 48 hrs by CLSI based agar dilution method; assay type: functional
Candida albicans [16] = test: Antifungal activity against Candida albicans assessed as inhibition of fungal growth measured after 48 hrs by CLSI based agar dilution method; assay type: functional
Candida tropicalis [17] = test: Potency index, ratio of AMD MIC to test compound MIC for antifungal activity against Candida tropicalis; assay type: functional
[18] = Hemolytic activity in human RBC measured after 1 hr; assay type: toxicity, cell-based, Erythrocyte; conditions: red blood cells (erythrocytes)
[19] = Acute toxicity in SPF ICR mouse assessed as polypnea at 15 to 30 mg/kg, iv administered on day 1 and measured for 14 days; assay type: organism-based; conditions: in vivo, 336 h, dose 15-30 mg/kg, time 14 day
Pichia kudriavzevii [20] = test: Antifungal activity against Candida krusei assessed as inhibition of fungal growth measured after 48 hrs by CLSI based agar dilution method; assay type: functional
Candida parapsilosis [21] = test: Antifungal activity against Candida parapsilosis assessed as inhibition of fungal growth measured after 48 hrs by CLSI based agar dilution method; assay type: functional; conditions: Lodderomyces parapsilosis
Candida albicans [22] = test: Potency index, ratio of AMD MIC to test compound MIC for antifungal activity against Candida albicans; assay type: functional
[23] = Acute toxicity in SPF ICR mouse assessed as prostration at 15 to 30 mg/kg, iv administered on day 1 and measured for 14 days; assay type: organism-based; conditions: in vivo, 336 h, dose 15-30 mg/kg, time 14 day
Pichia kudriavzevii [24] = test: Antifungal activity against Candida krusei ATCC 6258 assessed as inhibition of fungal growth measured after 48 hrs by CLSI based agar dilution method; assay type: functional
Pichia kudriavzevii [25] = test: Potency index, ratio of AMD MIC to test compound MIC for antifungal activity against Candida krusei; assay type: functional
[26] = Acute toxicity in SPF ICR mouse assessed as prostration upto 7.5 mg/kg, iv administered on day 1 and measured for 14 days; assay type: organism-based; conditions: in vivo, 336 h, time 14 day
Cryptococcus neoformans [27] = test: Potency index, ratio of AMD MIC to test compound MIC for antifungal activity against Cryptococcus neoformans; assay type: functional
Cryptococcus neoformans [28] = test: Antifungal activity against Cryptococcus neoformans ATCC 32609 assessed as inhibition of fungal growth measured after 48 hrs by CLSI based agar dilution method; assay type: functional
[29] = Acute toxicity in SPF ICR mouse assessed as polypnea upto 7.5 mg/kg, iv administered on day 1 and measured for 14 days; assay type: organism-based; conditions: in vivo, 336 h, time 14 day
Candida parapsilosis [30] = test: Potency index, ratio of AMD MIC to test compound MIC for antifungal activity against Candida parapsilosis; assay type: functional
[31] = route iv, dose 1 mg/kg, time < 24 hrs, read-out: CL

Voltage-gated inwardly rectifying potassium channel KCNH2, sequence (Q12809 whole entry): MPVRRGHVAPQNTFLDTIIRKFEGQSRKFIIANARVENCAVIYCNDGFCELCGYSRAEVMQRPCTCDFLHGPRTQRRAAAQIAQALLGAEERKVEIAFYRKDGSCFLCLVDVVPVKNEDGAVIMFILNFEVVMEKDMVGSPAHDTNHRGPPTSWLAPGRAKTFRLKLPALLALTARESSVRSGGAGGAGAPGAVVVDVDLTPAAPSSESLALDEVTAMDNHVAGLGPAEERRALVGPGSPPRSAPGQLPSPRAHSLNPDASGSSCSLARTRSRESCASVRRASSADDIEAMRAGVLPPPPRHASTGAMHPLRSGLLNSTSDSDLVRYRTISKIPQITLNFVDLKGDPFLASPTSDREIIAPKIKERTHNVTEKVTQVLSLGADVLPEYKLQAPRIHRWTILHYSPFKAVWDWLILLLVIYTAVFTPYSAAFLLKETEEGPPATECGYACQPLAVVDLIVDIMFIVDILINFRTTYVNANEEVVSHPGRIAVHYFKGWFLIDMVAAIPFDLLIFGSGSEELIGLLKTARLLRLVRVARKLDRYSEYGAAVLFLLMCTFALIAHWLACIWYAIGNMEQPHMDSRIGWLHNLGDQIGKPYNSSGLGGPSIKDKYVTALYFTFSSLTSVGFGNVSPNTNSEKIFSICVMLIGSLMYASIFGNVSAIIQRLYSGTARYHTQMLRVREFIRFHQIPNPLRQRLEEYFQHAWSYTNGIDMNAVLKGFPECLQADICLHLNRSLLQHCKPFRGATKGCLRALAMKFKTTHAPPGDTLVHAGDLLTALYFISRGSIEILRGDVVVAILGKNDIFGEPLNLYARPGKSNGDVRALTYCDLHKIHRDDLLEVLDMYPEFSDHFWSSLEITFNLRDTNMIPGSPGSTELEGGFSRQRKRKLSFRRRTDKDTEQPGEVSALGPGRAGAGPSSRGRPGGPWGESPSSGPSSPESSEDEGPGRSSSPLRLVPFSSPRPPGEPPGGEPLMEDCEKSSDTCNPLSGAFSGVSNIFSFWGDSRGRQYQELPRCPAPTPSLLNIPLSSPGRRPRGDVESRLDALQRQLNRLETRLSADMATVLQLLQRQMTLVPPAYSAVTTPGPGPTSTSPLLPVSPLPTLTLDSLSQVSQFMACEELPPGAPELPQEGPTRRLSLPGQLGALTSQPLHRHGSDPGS
Cytochrome P450 2D6, sequence (P10635 whole entry): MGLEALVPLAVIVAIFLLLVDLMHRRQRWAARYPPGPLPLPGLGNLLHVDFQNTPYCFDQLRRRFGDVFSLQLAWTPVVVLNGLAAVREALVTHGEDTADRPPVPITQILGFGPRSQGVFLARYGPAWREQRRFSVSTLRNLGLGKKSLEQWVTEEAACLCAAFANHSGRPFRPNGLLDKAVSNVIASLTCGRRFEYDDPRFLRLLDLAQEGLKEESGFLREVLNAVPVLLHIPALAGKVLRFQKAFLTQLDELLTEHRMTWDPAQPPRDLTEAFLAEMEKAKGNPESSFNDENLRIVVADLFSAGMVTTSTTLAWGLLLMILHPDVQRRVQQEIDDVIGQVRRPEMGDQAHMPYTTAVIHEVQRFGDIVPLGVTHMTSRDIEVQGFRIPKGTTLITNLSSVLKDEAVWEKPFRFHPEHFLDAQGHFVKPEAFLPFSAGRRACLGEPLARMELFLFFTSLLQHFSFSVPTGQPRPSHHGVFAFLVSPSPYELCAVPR
Cytochrome P450 2C19, sequence (P33261 whole entry): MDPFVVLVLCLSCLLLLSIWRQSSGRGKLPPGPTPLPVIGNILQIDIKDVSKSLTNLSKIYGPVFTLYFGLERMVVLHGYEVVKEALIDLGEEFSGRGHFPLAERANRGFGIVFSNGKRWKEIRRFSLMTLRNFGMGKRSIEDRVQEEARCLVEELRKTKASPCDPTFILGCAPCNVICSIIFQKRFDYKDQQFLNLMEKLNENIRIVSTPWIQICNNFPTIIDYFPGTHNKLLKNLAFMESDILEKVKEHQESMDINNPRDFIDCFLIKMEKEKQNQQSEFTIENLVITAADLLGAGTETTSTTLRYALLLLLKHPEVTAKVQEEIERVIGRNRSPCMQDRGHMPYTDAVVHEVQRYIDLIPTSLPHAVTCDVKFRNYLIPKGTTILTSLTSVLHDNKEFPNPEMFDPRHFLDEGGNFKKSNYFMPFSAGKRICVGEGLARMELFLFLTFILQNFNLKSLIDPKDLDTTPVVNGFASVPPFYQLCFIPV
Cytochrome P450 2C9, sequence (P11712 whole entry): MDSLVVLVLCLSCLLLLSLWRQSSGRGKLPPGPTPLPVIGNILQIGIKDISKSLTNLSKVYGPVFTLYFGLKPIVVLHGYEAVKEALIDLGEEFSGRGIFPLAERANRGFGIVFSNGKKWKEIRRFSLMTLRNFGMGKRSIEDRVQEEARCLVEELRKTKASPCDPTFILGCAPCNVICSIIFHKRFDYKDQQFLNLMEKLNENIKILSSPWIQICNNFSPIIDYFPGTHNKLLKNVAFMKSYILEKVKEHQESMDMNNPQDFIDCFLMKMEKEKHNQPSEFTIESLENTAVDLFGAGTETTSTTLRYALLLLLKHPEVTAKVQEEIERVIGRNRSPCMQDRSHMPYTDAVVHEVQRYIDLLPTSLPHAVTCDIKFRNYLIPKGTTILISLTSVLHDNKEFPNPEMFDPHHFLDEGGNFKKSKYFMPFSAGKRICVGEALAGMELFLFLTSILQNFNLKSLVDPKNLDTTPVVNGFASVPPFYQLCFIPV
Cytochrome P450 3A4, sequence (P08684 whole entry): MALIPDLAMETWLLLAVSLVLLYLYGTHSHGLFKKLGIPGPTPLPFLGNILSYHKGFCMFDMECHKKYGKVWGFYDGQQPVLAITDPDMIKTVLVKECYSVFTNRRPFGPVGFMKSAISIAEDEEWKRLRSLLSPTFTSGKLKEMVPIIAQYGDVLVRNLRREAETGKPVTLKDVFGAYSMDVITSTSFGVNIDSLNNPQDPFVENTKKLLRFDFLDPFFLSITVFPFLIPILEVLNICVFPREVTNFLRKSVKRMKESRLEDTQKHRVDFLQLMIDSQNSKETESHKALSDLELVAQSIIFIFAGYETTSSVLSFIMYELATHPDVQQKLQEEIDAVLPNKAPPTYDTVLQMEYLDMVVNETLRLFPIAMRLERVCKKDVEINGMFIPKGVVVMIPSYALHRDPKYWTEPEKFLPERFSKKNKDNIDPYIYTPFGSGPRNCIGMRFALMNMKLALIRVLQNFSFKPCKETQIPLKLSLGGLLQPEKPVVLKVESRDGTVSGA

Row | SMILES | half-life [1] | ED50 (Candida albicans [2]) | clearance [3, 31] | AUC(0-t) at 24 h [4] | MTD at 336 h [5] | selectivity ratio [6] | MRT inf [7] | Vd [8] | AUC(0-inf) [9] | solubility [12] | MIC (Candida tropicalis [15]) | MIC (Candida albicans [16]) | HC50 at 1 h [18] | MIC (Pichia kudriavzevii [20]) | MIC (Candida parapsilosis [21]) | MIC (Pichia kudriavzevii [24]) | MIC (Cryptococcus neoformans [28]) | further results
1 | C[C@@H]1[C@H](O)[C@@H](C)/C=C/C=C/C=C/C=C/C=C/C=C/C=C/[C@H](O[C@@H]2O[C@H](C)[C@@H](O)[C@H](N)[C@@H]2O)C[C@@H]2O[C@](O)(C[C@@H](O)C[C@@H](O)[C@H](O)CC[C@@H](O)C[C@@H](O)CC(=O)O[C@H]1C)C[C@H](O)[C@H]2C(=O)NCCN | 17.5 h | 0.32 mg/kg | 0.896 mL/min/kg | 11600 ng·h/mL | 7.5 mg/kg | 23.4 | 25.3 h | 1.33 L/kg | 18900 ng·h/mL |  |  |  |  |  |  |  |  | 
2 | CNCC(=O)N[C@@H]1[C@H](O)[C@H](O[C@H]2/C=C/C=C/C=C/C=C/C=C/C=C/C=C/[C@H](C)[C@@H](O)[C@@H](C)[C@H](C)OC(=O)C[C@H](O)C[C@H](O)CC[C@@H](O)[C@H](O)C[C@H](O)C[C@]3(O)C[C@H](O)[C@@H](C(=O)NCCN)[C@H](C2)O3)O[C@H](C)[C@H]1O [listing 1 of 2 here] |  |  |  |  |  |  |  |  |  |  |  |  |  |  |  |  |  | Activity (Lipid bilayer [10]): Active; Activity (Lipid bilayer [11]): Active
3 | CNCC(=O)N[C@@H]1[C@H](O)[C@H](O[C@H]2/C=C/C=C/C=C/C=C/C=C/C=C/C=C/[C@H](C)[C@@H](O)[C@@H](C)[C@H](C)OC(=O)C[C@H](O)C[C@H](O)CC[C@@H](O)[C@H](O)C[C@H](O)C[C@]3(O)C[C@H](O)[C@@H](C(=O)NCCN)[C@H](C2)O3)O[C@H](C)[C@H]1O.NC(CCC(=O)O)C(=O)O |  |  |  |  |  |  |  |  |  | 106 mg/mL |  |  |  |  |  |  |  | IC50 (Cytochrome P450 2C19): > 50 µM; Activity [13]: Active; IC50 (Cytochrome P450 1A2): > 25 µM; IC50 (Cytochrome P450 2C9): > 50 µM; IC50 [14]: > 13.3 µM; IC50 (Cytochrome P450 3A4): 36.9 µM; IC50 (Cytochrome P450 2D6): > 50 µM
4 | CNCC(=O)N[C@@H]1[C@H](O)[C@H](O[C@H]2/C=C/C=C/C=C/C=C/C=C/C=C/C=C/[C@H](C)[C@@H](O)[C@@H](C)[C@H](C)OC(=O)C[C@H](O)C[C@H](O)CC[C@@H](O)[C@H](O)C[C@H](O)C[C@]3(O)C[C@H](O)[C@@H](C(=O)NCCN)[C@H](C2)O3)O[C@H](C)[C@H]1O [listing 2 of 2 here] | 20.5 h | 0.21 mg/kg | 0.53 mL/min/kg | 17600 ng·h/mL | 7.5 mg/kg | 35.7 | 29.5 h | 0.917 L/kg | 31800 ng·h/mL | 0.0585 mg/mL (≈ 56.4 µM) | 0.03 µg/mL (≈ 0.0289 µM) | < 0.008 µg/mL | 105 µM | 0.25 µg/mL (≈ 0.241 µM) | 0.03 µg/mL (≈ 0.0289 µM) | 0.125 µg/mL (≈ 0.121 µM) | < 0.008 µg/mL | Ratio (Nakaseomyces glabratus): 66; Ratio (Candida tropicalis [17]): 33; Activity [19]: Toxic; Ratio (Candida albicans [22]): 60; Activity [23]: Toxic; Ratio (Pichia kudriavzevii [25]): 8; Activity [26]: Non-Toxic; Ratio (Cryptococcus neoformans [27]): 125; Activity [29]: Non-Toxic; Ratio (Candida parapsilosis [30]): 16
5 | C[C@@H]1[C@H](O)[C@@H](C)/C=C/C=C/C=C/C=C/C=C/C=C/C=C/[C@H](O[C@@H]2O[C@H](C)[C@@H](O)[C@H](NC(=O)CN)[C@@H]2O)C[C@@H]2O[C@](O)(C[C@@H](O)C[C@@H](O)[C@H](O)CC[C@@H](O)C[C@@H](O)CC(=O)O[C@H]1C)C[C@H](O)[C@H]2C(=O)NCCN | 18.2 h |  | 0.913 mL/min/kg | 11500 ng·h/mL |  |  | 24.9 h | 1.37 L/kg | 18300 ng·h/mL |  | 0.03 µg/mL (≈ 0.0293 µM) | < 0.008 µg/mL | 18.2 µM | 0.06 µg/mL (≈ 0.0586 µM) | 0.015 µg/mL (≈ 0.0147 µM) | 0.5 µg/mL (≈ 0.489 µM) | < 0.008 µg/mL | 
6 | C[C@@H]1[C@H](O)[C@@H](C)/C=C/C=C/C=C/C=C/C=C/C=C/C=C/[C@H](O[C@@H]2O[C@H](C)[C@@H](O)[C@H](N)[C@@H]2O)C[C@@H]2O[C@](O)(C[C@@H](O)C[C@@H](O)[C@H](O)CC[C@@H](O)C[C@@H](O)CC(=O)O[C@H]1C)C[C@H](O)[C@H]2C(=O)O [AMPHOTERICIN B] | 19.2 h | 1.08 mg/kg |  |  | 2.01 mg/kg |  | 28.8 h | 6.42 L/kg |  |  | 1 µg/mL (≈ 1.08 µM) | 0.5 µg/mL (≈ 0.541 µM) | 4.13 µM |  | 0.25 µg/mL (≈ 0.271 µM) |  |  | clearance ([3]; iv, 1 mg/kg, read-out: AUC): 4.02 mL/min/kg; AUClast ([4]; 24 h): 2488 ng·h/mL; AUC ([9]; 24 h): 4476 ng·h/mL
